Data: US7825103B2, “Pyrimidine nucleoside compound or its salt” (Taiho Pharmaceutical Co., Ltd., priority 2005, dated 2010)
Counter-ions that a name gives are not always drawn.

What was measured:
[1] = tested on: Human large intestine cancer cell strain KM20C; test: Anti-tumor test using nude mouse subcutaneous implantation system with peroral administration of CNDAC compound; assay type: in vivo, BALB/cA Jcl-nu mice; conditions: peroral once a day for 14 days, dose equivalent by mole to 18 mg/kg/day of CNDAC, day 29 after grouping, KM20C subcutaneous implant; for inhibition in vivo: Mus musculus, sc, 696 h, read-out: IR (%) tumor growth inhibition rate
Protocol: Human large intestine cancer cell strain KM20C was subcutaneously subcultured in BALB/cA Jcl-nu mice (CLEA Japan, Inc.), and the resultant cancer tissues were cut into 2 mm dice fragments. Each of the fragments was subcutaneously implanted to a 6-week-old BALB/cA Jcl-nu mouse at the back thereof. On day 14 after the implantation, large and small diameters of the resultant tumor were measured, and the volume of the tumor was calculated by the following equation. The mice were grouped (6 animals per group) so that the groups were roughly equal in terms of average tumor volume. Vt=½(Vl)×(Vs)^2 (Equation 1) In the equation, Vt represents tumor volume, Vl represents large diameter of tumor, and Vs represents small diameter of tumor.
Each CNDAC compound was dissolved or suspended in 0.5% hydroxypropyl methyl cellulose solution which had been buffered with 100 mM citrate buffer (pH 6.0). From the next day after grouping, the mixture was perorally administered to each mouse once a day for consecutive 14 days in a dose which is equivalent, by mole, to 18 mg/kg/day of CNDAC.
On day 29 after the grouping, large and small diameters of the subcutaneously implanted tumor of each mouse were measured, and relative tumor volume (RTV) and inhibition rate (IR) were calculated by the following equations to evaluate anti-tumor effect of the compound. RTV=Vt1/Vt2 (Equation 2) In the equation, RTV represents ratio of tumor volume, Vt1 represents tumor volume measured on the day of determination, and […]. IR(%)=[1−(RTVtest)/(RTVcont)]×100 (Equation 3) In the equation, IR represents tumor growth inhibition rate, RTVtest represents mean RTV value of a drug-administered group, and RTVcont represents mean RTV value of a non-treatment group.

| Structure (SMILES) | melting point | inhibition in vivo [1] [%] | IR (%) tumor growth inhibition rate [1] [%] |
| --- | --- | --- | --- |
| C[Si](C)(OC[C@H]1O[C@@H](n2ccc(N)nc2=O)[C@@H](C#N)[C@@H]1O)c1ccccc1 | 139 to 140 °C |  |  |
| CC(C)C(C)(C)[Si](C)(C)OC[C@H]1O[C@@H](n2ccc(N)nc2=O)[C@H](C#N)[C@@H]1O | 187 to 187.5 °C |  |  |
| CC(C)C(C)(C)[Si](C)(C)O[C@H]1[C@H](C#N)[C@H](n2ccc(N)nc2=O)O[C@@H]1CO.CS(=O)(=O)O | 203 to 204 °C |  |  |
| CC(C)C[Si](CC(C)C)(CC(C)C)O[C@H]1[C@H](C#N)[C@H](n2ccc(N)nc2=O)O[C@@H]1CO | 101 to 102 °C |  |  |
| CC(C)C(C)(C)[Si](C)(C)O[C@H]1[C@@H](C#N)[C@H](n2ccc(N)nc2=O)O[C@@H]1CO | 179 to 182 °C |  |  |
| C[Si](C)(OC[C@H]1O[C@@H](n2ccc(N)nc2=O)[C@@H](C#N)[C@@H]1O)C1CCCCC1 | 152 to 153 °C |  |  |
| CC(C)(C)[Si](OC[C@H]1O[C@@H](n2ccc(N)nc2=O)[C@@H](C#N)[C@@H]1O)(c1ccccc1)c1ccccc1 | 187 °C |  |  |
| N#C[C@H]1[C@H](O)[C@@H](CO[Si](c2ccccc2)(c2ccccc2)c2ccccc2)O[C@H]1n1ccc(N)nc1=O | 203 °C (dec.) |  |  |
| N#C[C@H]1[C@H](O)[C@@H](CO[Si](Cc2ccccc2)(Cc2ccccc2)Cc2ccccc2)O[C@H]1n1ccc(N)nc1=O | 188 °C (dec.) |  |  |
| CC(C)C(C)(C)[Si](C)(C)O[C@H]1[C@H](C#N)[C@H](n2ccc(N)nc2=O)O[C@@H]1CO (as salt: hydrochloride) [Example 26, 3′-O-Dimethylthexylsilyl-2′-cyano-2′-deoxy-1-β-D-arabinofuranosylcytosine hydrochloride] | 206 °C (dec.) |  |  |
| CC(C)[C@H](N)C(=O)OC[C@H]1O[C@@H](n2ccc(N)nc2=O)[C@@H](C#N)[C@@H]1O[Si](C)(C)C(C)(C)C(C)C (as salt: trifluoroacetate) [Example 31, 3′-O-Dimethylthexylsilyl-5′-O-(L-valyl)-2′-cyano-2′-deoxy-1-β-D-arabinofuranosylcytosine bis(trifluoroacetate)] | 118 to 120 °C |  |  |
| CC(C)[C@H](N)C(=O)OC[C@H]1O[C@@H](n2ccc(N)nc2=O)[C@@H](C#N)[C@@H]1O[Si](C)(C)C(C)(C)C (as salt: trifluoroacetate) [Example 32, 5′-O-(L-Valyl)-3′-O-(tert-butyldimethylsilyl)-2′-cyano-2′-deoxy-1-β-D-arabinofuranosylcytosine bis(trifluoroacetate)] | 118 to 120 °C |  |  |
| CC(C)(C)[Si](C)(C)OC[C@H]1O[C@@H](n2ccc(N)nc2=O)[C@@H](C#N)[C@@H]1O [Example 1, 5′-O-(tert-Butyldimethylsilyl)-2′-cyano-2′-deoxy-1-β-D-arabinofuranosylcytosine] | 185 °C (dec.) | 75 |  |
| CC(C)[Si](OC[C@H]1O[C@@H](n2ccc(N)nc2=O)[C@@H](C#N)[C@@H]1O)(C(C)C)C(C)C [Example 2, 5′-O-Triisopropylsilyl-2′-cyano-2′-deoxy-1-β-D-arabinofuranosylcytosine] | 177 °C (dec.) | 65 |  |
| CC[Si](CC)(OC[C@H]1O[C@@H](n2ccc(N)nc2=O)[C@@H](C#N)[C@@H]1O)C(C)C [Example 3, 5′-O-Diethylisopropylsilyl-2′-cyano-2′-deoxy-1-β-D-arabinofuranosylcytosine] |  |  | 82 |
| CC(C)C(C)(C)[Si](C)(C)OC[C@H]1O[C@@H](n2ccc(N)nc2=O)[C@@H](C#N)[C@@H]1O [Example 6, 5′-O-Dimethylthexylsilyl-2′-cyano-2′-deoxy-1-β-D-arabinofuranosylcytosine] | 188 °C (dec.) | 82 |  |
| CC(C)C[Si](CC(C)C)(CC(C)C)OC[C@H]1O[C@@H](n2ccc(N)nc2=O)[C@@H](C#N)[C@@H]1O [Example 7, 5′-O-Triisobutylsilyl-2′-cyano-2′-deoxy-1-β-D-arabinofuranosylcytosine] | 152 °C | 79 |  |
| CCCCCCCC[Si](C)(C)OC[C@H]1O[C@@H](n2ccc(N)nc2=O)[C@@H](C#N)[C@@H]1O [Example 10, 5′-O-(Dimethyl-n-octylsilyl)-2′-cyano-2′-deoxy-1-β-D-arabinofuranosylcytosine] | 142 °C | 68 |  |
| CC(C)(C)[Si]1(C(C)(C)C)OC[C@H]2O[C@@H](n3ccc(N)nc3=O)[C@@H](C#N)[C@@H]2O1 [Example 18, 3′,5′-O-(Di-tert-butylsilanediyl)-2′-cyano-2′-deoxy-1-β-D-arabinofuranosylcytosine] | 139 to 140 °C | 69 |  |
| CC[Si](CC)(O[C@H]1[C@H](C#N)[C@H](n2ccc(N)nc2=O)O[C@@H]1CO)C(C)C [Example 21, 3′-O-Diethylisopropylsilyl-2′-cyano-2′-deoxy-1-β-D-arabinofuranosylcytosine] | 161 to 163 °C | 85 |  |
| CCCCCCCC[Si](C)(C)O[C@H]1[C@H](C#N)[C@H](n2ccc(N)nc2=O)O[C@@H]1CO [Example 23, 3′-O-(Dimethyl-n-octylsilyl)-2′-cyano-2′-deoxy-1-β-D-arabinofuranosylcytosine] | 153 to 154 °C |  |  |
| CC(C)(C)[Si](C)(C)O[C@H]1[C@H](C#N)[C@H](n2ccc(N)nc2=O)O[C@@H]1CO.O=C(O)C(F)(F)F [Example 24, 3′-O-(tert-Butyldimethylsilyl)-2′-cyano-2′-deoxy-1-β-D-arabinofuranosylcytosine trifluoroacetate] | 163 to 165 °C | 83 |  |
| CC(C)C(C)(C)[Si](C)(C)O[C@H]1[C@H](C#N)[C@H](n2ccc(N)nc2=O)O[C@@H]1CO.O=C(O)C(F)(F)F [Example 25, 3′-O-Dimethylthexylsilyl-2′-cyano-2′-deoxy-1-β-D-arabinofuranosylcytosine trifluoroacetate] | 151 to 154 °C |  |  |
| CC(C)[Si](O[C@H]1[C@H](C#N)[C@H](n2ccc(N)nc2=O)O[C@@H]1CO)(C(C)C)C(C)C [Example 27, 3′-O-Triisopropylsilyl-2′-cyano-2′-deoxy-1-β-D-arabinofuranosylcytosine] | 162 to 163 °C | 85 |  |
| CC(C)[C@H](N)C(=O)OC[C@H]1O[C@@H](n2ccc(N)nc2=O)[C@@H](C#N)[C@@H]1O[Si](C)(C)C(C)(C)C(C)C [Example 31, 3′-O-Dimethylthexylsilyl-5′-O-(L-valyl)-2′-cyano-2′-deoxy-1-β-D-arabinofuranosylcytosine bis(trifluoroacetate)] |  | 89 |  |
| CC(C)[C@H](N)C(=O)OC[C@H]1O[C@@H](n2ccc(N)nc2=O)[C@@H](C#N)[C@@H]1O[Si](C)(C)C(C)(C)C [Example 32, 5′-O-(L-Valyl)-3′-O-(tert-butyldimethylsilyl)-2′-cyano-2′-deoxy-1-β-D-arabinofuranosylcytosine bis(trifluoroacetate)] |  | 85 |  |
